Tests used:
[1] = system: PTEN-P2/H2B-GFP mouse prostate cancer cells; experiment: IVM pseudo-orthotopic prostate chamber model, tumor size
Procedure: Male Nude mice (25-35 g body weight) are anesthetized (7.3 mg ketamine hydrochloride and 2.3 mg xylazine/100 g body weight, i.p.) and placed on a heating pad. Two symmetrical titanium frames are implanted into a dorsal skinfold, so as to sandwich the extended double layer of skin. A 15 mm full thickness circular layer is excised. The underlying muscle (M. cutaneous max.) and subcutaneous tissues are covered with a glass coverslip incorporated in one of the frames. After a recovery period of 2-3 days, prostate tissue and cancer cell spheroids are carefully placed in the chamber. Small circular Band Aids are applied on the backside of the chamber after surgery to prevent scratching. Before surgery, Buprenorphine (0.1 mg/kg) is given IP. After surgery Meloxicam is given in the drinking water for 4 days Meloxicam (5.0 mg/ml), is added at 35 μl per 100 ml of water to be medicated.
Mice are anesthetized with 7.3 mg ketamine hydrochloride and 2.3 mg xylazine/100 g body weight, i.p. A lateral incision across the scrotum is made and the testes are individually ligated and excised. The wound is cauterized. The incision is then sutured and sealed with Nexaband® acrylic.
Preparation of tumor spheroids: Liquid overlay plates were generated using 1% molecular biology grade agarose melted in cell culture medium and plated in round bottom 96 well plates at 50 ul/well. Tumor cells grown as pre-confluent monolayers were trypsinized and diluted to a final volume of 1,000,000 cells/ml. Viability was determined by Trypan blue. Cells were placed onto the cooled agarose (70 μl/well) and allowed to compact into spheroids for 24 hours. The spheroids were picked with a pipette and transferred into serum-free media for implantation in the chambers.
IntraVital Microscopy (IVM) can be used to visualize tumors in animals and analyze various aspects of cancer physiology such as tumor vascularization, cell migration and metastasis. An advantage of IVM includes the real-time analysis of dynamic processes with single-cell resolution. IntraVital microscopy offers the possibility to follow tumor growth in a non-invasive, non-destructive manner. The application of IVM can be limited to animal models that bear visually accessible tumors. Therefore, the dorsal skinfold chamber model described above can be compatible with IVM. Using IVM can permit a number of parameters to be measured in living animals and as a function of time, including tumor growth, angiogenesis, infiltration by immune cells, tumor cell migration, mitosis (cell-division) and apoptosis (programmed cell death), all in the context of the host and in real time.
Unless otherwise indicated, Compound I was administered by oral gavage in a sesame oil (Carrier A) formulation. Compound I was dissolved in DMSO then in oil at a concentration of 0.25 mg/ml (weight/volume) with a final DMSO concentration of 0.5% (vol/vol), and administered to mice at 1 mg/kg. In some experiments, Compound I dissolved in a mixture of poly-ethylene glycol/DMSO 30% (w/v) was administered via intra-peritoneal injection.
The efficacy of the formulation of Compound I in Carrier A for oral administration was compared to the previous formulation of Compound I in poly-ethylene glycol (PEG) for intra-peritoneal injection (i.p.). These experiments were performed using Intra Vital Microscopy (IVM) in a pseudo-orthotopic prostate chamber model in which minced prostate tissue is grafted in chambers surgically placed in the dorsal skinfold of mice, and allowed to vascularize. Small tumor cells spheroids were then placed on the prostate tissue, creating a biologically relevant prostatic environment. The tumor cells that express fluorescent H2B-GFP and can be detected in situ and in real-time through the microscopy window of the dorsal chamber.
Epithelial cell lines derived from the prostate tumor of a PTEN-null mouse were used. Mouse prostate cancer cells PTEN-P2 are heterozygous for PTEN deletion and do express protein PTEN.

[2] = system: PTEN-CaP2/H2B-GFP tumors; experiment: IVM chamber model of castration resistant prostate cancer (CRPC), tumor size; type: in vivo, mouse
From the text: Mouse prostate cancer cells PTEN-CaP2 were initially derived from the PTEN-P2 cell line and are homozygous for PTEN deletion. Complete ablation of PTEN results in intrinsic androgen-independence in the PTEN-null model. Although PTEN-CaP2 tumors express AR, they are resistant to castration in the absence of prior exposure to ADT.

CC1=CC(=O)c2c(O)cccc2C1=O [Compound I, 5-hydroxy-2-methylnaphthalene-1,4-dione]
Tumor regression at higher doses ([1]; 3 and 10 mg/kg/day in oil, oral, castrated mice): no improvement over the dose of 1 mg/kg/day
Combination efficacy ([1]; Compound I administered orally in combination with surgical castration): Yes
Shrinkage of the tumors ([1]; Compound I in Carrier A orally 1 mg/kg/day with degarelix): approximately 50%
Tumor size relative to the starting size ([1]; Compound I in Carrier A orally with abiraterone/prednisone): less than 60%
Effect on tumor size ([1]; Compound I in Carrier A orally with bicalutamide): did not result in a reduction of initial tumor size
Shrinkage of the tumor size ([1]; Compound I in Carrier A orally with dutasteride): approximately 30%
Effect on tumor size ([1]; Compound I in Carrier A orally with enzalutamide): did not result in a reduction in tumor size
Tumor size relative to the starting size ([1]; Compound I in Carrier A orally with orteronel): less than 60%
Decrease of tumor sizes ([1]; Compound I in PEG, i.p. 1 mg/kg/day, castrated mice, p<0.001): 50%
Effectiveness vs drug alone ([1]; combination of bicalutamide with Compound I): no more effective than treatment with the drug alone
Effectiveness vs drug alone ([1]; combination of enzalutamide with Compound I): no more effective than treatment with the drug alone
Effect on tumor size ([1]; combination of leuprolide and the oral formulation of Compound I): caused the tumors to shrink
Tumor flare vs leuprolide alone ([1]; combination of the oral formulation of Compound I and leuprolide): shorter and of lesser amplitude
Efficiency vs combination with surgical castration ([1]; combination with 2 mg/kg dutasteride): nearly as efficient as the combination of Compound I with surgical castration
Efficiency vs chemical ADT by itself ([1]; combination with abiraterone/prednisone vs abiraterone/prednisone): more efficient
Shrinkage vs comparator combination ([1]; combination with abiraterone/prednisone, comparator printed as combination of Compound I and abiraterone/prednisone): more shrinkage of tumors
Shrinkage vs combination of Compound I and castration ([1]; combination with degarelix): more shrinkage of tumors
Efficiency vs chemical ADT by itself ([1]; combination with degarelix vs degarelix): more efficient
Dose dependence of tumor regression ([1]; combination with dutasteride at 2, 0.3, 0.1, 0.03 mg/kg): tumor regression proportionally to the dose of dutasteride
Efficiency vs chemical ADT by itself ([1]; combination with dutasteride vs dutasteride, p<0.001): more efficient
Shrinkage vs combination of Compound I and castration ([1]; combination with orteronel): more shrinkage of tumor size
Efficiency vs chemical ADT by itself ([1]; combination with orteronel vs orteronel): more efficient
Maximum tumor size reached, relative to initial tumor size ([1]; leuprolide plus Compound I orally 1 mg/kg/day, p=0.014 between treatments): 120%
Tumor regression at lower doses ([1]; lower doses than 1 mg/kg/day (FIG. 3B), oral in Carrier A, castrated mice): less efficient at causing tumor regression
Tolerability of oral administration ([1]; mice, up to 10 mg/kg/day for 21 days, no changes in whole body weights or animal behavior): well tolerated
Dose of optimal effect ([1]; oil formulation, oral, castrated mice): 1 mg/kg/day
Tumor regression, oral formulation versus i.p. formulation ([1]; oral 1 mg/kg/day in Carrier A, castrated mice): as effectively as i.p. injection of 1 mg/kg Compound I in PEG
Dose at which Compound I was maximally effective ([1]; see Example 5): 1 mg/kg
Tumor size relative to initial size ([2]; combination of Compound I and castration): 157%
Tumor size relative to initial size ([2]; oral formulation of Compound I alone (680% castrated, 656% untreated)): 293%
Effectiveness of combination with castration vs Compound I alone ([2]; p=0.048): twice as effective

— patent US20180221306A1, “PHARMACEUTICAL COMPOSITIONS OF 5-HYDROXY-2-METHYLNAPHTHALENE-1,4-DIONE” (PellFiCure Pharmaceuticals, Inc., priority 2016, published 2018)
